Data published in patent US11547697B2, “Heterocyclic compounds and uses thereof” (MILLENNIUM PHARMACEUTICALS, INC., priority 2009, dated 2023).
Read-outs that look alike come from different tables or passages of the source.

Tests used:
Assay type in all cases: biochemical
p110α/p85α = p110α/p85α (Homo sapiens (Human), UniProt P42336); assay: PI 3-Kinase (human) HTRF assay, p110α/p85α; conditions: read-out: PI3K α IC50
p110β/p85α = p110β/p85α (Homo sapiens (Human), UniProt P42338); assay: PI 3-Kinase (human) HTRF assay, p110β/p85α; conditions: read-out: PI3K β IC50
p110γ = p110γ (Homo sapiens (Human), UniProt P48736); assay: PI 3-Kinase (human) HTRF assay, p110γ; conditions: read-out: PI3K γ IC50
p110γ, sequence (P48736 whole entry): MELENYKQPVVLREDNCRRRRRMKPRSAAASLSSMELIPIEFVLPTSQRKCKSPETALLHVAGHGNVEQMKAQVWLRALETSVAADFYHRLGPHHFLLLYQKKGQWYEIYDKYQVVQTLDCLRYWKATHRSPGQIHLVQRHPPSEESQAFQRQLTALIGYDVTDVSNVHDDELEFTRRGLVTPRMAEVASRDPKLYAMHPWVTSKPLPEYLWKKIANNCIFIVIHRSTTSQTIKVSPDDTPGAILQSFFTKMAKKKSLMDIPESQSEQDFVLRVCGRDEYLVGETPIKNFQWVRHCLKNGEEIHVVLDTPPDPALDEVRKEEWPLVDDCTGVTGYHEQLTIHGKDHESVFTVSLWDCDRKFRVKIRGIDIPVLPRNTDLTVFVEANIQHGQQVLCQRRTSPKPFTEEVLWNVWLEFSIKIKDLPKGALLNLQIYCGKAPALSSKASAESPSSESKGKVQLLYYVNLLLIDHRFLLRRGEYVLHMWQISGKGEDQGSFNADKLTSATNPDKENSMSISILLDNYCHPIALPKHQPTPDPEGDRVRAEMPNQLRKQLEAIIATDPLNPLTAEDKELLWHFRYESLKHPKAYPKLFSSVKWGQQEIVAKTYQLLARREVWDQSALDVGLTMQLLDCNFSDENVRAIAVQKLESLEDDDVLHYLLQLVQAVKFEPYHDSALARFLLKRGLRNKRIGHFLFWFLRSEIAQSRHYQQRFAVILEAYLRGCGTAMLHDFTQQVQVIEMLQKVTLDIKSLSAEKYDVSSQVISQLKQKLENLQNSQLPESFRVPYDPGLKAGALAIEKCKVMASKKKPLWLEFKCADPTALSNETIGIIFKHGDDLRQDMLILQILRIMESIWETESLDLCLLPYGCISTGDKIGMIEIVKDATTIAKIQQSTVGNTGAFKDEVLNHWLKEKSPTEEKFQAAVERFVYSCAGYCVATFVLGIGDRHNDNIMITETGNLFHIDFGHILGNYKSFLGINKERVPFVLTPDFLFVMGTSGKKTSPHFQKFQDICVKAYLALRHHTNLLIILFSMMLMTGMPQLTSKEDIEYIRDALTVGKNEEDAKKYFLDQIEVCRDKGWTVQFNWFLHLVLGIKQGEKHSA

p110β/p85α, sequence (P42338 whole entry): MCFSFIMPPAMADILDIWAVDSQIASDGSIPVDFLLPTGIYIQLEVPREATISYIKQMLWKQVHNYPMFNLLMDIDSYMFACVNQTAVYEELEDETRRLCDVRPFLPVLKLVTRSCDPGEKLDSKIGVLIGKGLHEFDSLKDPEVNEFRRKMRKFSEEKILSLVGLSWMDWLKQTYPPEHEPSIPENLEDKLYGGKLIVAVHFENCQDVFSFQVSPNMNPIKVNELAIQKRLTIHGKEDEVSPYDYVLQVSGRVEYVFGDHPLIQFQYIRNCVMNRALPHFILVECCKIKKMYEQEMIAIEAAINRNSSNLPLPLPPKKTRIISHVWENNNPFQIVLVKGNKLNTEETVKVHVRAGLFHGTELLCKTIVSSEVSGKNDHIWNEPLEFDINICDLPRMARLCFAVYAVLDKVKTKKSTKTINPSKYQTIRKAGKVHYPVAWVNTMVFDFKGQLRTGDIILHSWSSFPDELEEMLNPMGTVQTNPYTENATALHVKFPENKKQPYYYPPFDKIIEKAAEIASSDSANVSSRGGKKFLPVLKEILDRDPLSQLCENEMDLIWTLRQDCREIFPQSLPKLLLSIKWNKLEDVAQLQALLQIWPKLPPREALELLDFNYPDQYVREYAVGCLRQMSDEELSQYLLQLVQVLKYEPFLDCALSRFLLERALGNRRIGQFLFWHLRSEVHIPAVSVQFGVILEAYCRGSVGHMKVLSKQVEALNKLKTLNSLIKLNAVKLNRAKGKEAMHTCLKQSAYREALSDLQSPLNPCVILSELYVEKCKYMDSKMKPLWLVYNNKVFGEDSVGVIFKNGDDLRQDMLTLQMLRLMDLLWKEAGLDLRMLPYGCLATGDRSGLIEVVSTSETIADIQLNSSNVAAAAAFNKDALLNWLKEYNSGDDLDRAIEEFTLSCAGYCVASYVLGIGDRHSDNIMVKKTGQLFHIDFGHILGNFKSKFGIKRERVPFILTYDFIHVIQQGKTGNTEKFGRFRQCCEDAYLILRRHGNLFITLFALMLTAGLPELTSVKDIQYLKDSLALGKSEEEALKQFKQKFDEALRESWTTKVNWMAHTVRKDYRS
p110β/p85α, sequence (P27986 whole entry partner): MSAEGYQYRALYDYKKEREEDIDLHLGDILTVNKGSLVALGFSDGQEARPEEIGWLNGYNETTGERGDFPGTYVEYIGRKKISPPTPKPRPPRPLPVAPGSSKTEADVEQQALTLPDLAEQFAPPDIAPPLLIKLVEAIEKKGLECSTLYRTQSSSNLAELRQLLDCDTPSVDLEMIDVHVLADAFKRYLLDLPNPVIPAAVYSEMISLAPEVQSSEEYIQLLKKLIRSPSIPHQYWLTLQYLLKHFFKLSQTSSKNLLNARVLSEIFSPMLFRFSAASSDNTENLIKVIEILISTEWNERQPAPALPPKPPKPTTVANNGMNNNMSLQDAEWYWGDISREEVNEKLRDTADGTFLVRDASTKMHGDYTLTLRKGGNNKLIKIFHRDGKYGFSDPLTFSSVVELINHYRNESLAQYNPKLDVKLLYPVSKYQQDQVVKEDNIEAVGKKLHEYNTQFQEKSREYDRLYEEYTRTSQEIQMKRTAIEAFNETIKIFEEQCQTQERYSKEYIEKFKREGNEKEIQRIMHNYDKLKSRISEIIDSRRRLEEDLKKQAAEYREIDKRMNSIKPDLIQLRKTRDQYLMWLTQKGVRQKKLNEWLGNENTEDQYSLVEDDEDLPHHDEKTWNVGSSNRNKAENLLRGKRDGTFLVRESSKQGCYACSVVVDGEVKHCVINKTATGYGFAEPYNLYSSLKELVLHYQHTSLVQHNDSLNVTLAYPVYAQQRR
p110α/p85α, sequence (P42336 whole entry): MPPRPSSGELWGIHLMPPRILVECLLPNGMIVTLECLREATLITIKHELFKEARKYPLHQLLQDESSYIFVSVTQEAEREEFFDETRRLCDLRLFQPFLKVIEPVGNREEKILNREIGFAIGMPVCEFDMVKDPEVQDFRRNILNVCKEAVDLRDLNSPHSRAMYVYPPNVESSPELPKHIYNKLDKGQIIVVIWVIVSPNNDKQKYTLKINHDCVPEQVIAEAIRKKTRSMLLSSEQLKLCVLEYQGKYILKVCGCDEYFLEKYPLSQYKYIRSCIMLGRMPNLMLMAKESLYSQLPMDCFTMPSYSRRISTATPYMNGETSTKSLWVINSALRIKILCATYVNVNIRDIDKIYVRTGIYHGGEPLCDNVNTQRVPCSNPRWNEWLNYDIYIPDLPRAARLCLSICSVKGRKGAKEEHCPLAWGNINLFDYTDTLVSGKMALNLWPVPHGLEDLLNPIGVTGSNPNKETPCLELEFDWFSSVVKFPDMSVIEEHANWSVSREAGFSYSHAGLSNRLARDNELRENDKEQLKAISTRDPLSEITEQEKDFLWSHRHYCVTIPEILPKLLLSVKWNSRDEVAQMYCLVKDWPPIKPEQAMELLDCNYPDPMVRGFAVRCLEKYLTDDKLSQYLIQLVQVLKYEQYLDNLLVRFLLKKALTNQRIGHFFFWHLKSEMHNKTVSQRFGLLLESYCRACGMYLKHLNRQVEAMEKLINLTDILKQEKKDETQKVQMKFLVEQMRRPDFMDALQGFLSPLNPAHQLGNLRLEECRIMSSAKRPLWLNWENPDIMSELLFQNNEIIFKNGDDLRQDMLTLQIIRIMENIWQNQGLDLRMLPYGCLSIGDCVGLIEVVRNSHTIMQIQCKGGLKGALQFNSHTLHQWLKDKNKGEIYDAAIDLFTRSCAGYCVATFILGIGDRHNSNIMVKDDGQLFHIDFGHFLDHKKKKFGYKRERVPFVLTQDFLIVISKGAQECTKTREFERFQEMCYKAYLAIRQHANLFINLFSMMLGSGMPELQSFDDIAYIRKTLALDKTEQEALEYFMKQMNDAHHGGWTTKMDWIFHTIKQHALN
p110α/p85α, sequence (P27986 whole entry partner): as the sequence (P27986 whole entry partner) above

SMILES | IC50 (p110α/p85α) | IC50 (p110β/p85α) | IC50 (p110γ) | IC50 (p110α/p85α; in vitro) | IC50 (p110β/p85α; in vitro) | IC50 (p110γ; in vitro)
Nc1ncc2cc(-c3ccc4nccc(-c5ccncc5)c4c3)ccc2n1 [compound 9] | < 1000 nM | < 10000 nM | < 1000 nM |  |  | 
CCN1CCC(n2cnc3ccc(-c4ccc5oc(N)nc5c4)cc3c2=O)CC1 [compound 73] | < 1000 nM | < 10000 nM |  |  |  | 
CN1CCN(c2cnc3ccc(-c4ccc5nc(N)oc5c4)cc3n2)CC1 [compound 118] | < 1000 nM | < 100 nM | < 10000 nM |  |  | 
CN1CCN(c2cnc3ccc(-c4ccc5sc(N)nc5c4)cc3n2)CC1 [compound 127] | < 1000 nM | < 100 nM | < 10000 nM |  |  | 
CN1CCCN(c2cnc3ccc(-c4ccc5oc(N)nc5c4)cc3n2)CC1 [compound 136] | < 1000 nM | < 1000 nM | < 10000 nM |  |  | 
CN(CCN1CCOCC1)c1cnc2ccc(-c3ccc4oc(N)nc4c3)cc2n1 [compound 166] | < 1000 nM | < 10000 nM | < 10000 nM |  |  | 
Nc1nc2cc(-c3ccc4ncc(-c5ccccn5)nc4c3)ccc2o1 [compound 195] | < 1000 nM | < 10000 nM | < 100 nM |  |  | 
Nc1nc2cc(-c3ccc4nnc(-c5ccncc5)n4c3)ccc2o1 [compound 229] |  |  |  | < 1000 nM | < 1000 nM | < 10000 nM
CC(=O)Nc1nc2ccc(-c3ccc4nc(N)oc4c3)cc2s1 [compound 242] |  |  |  | < 100 nM | < 100 nM | < 100 nM
Nc1nc2ccc(-c3ccc4nc(N)sc4c3)cc2o1 [compound 243] |  |  |  | < 1000 nM | < 100 nM | < 100 nM
Nc1cn2cc(-c3ccc4nc(N)oc4c3)ccc2n1 [compound 247] |  |  |  |  | < 10000 nM | < 10000 nM
COCCn1cnc2ccc(-c3ccc4oc(N)nc4c3)cc2c1=O [compound 272] |  |  |  | < 1000 nM | < 10000 nM | < 10000 nM
Nc1nc2cc(-c3ccc4ncn(CCN5CCOCC5)c(=O)c4c3)ccc2o1 [compound 289] |  |  |  | < 1000 nM | < 10000 nM | < 1000 nM
Nc1nc2ccc(-c3ccc4nnc(-c5cccnc5)n4c3)cc2o1 [compound 301] |  |  |  | < 10000 nM | < 10000 nM | 
C[C@H]1CN(c2cnc3ccc(-c4ccc5sc(N)nc5c4)cc3n2)CCN1 [compound 307] |  |  |  | < 1000 nM | < 1000 nM | 
C[C@H]1CN(c2cnc3ccc(-c4ccc5nc(N)sc5c4)cc3n2)CCN1 [compound 308] |  |  |  | < 1000 nM | < 1000 nM | < 10000 nM
C[C@H]1CN(c2cnc3ccc(-c4ccc5nc(N)oc5c4)cc3n2)CCN1 [compound 309] |  |  |  | < 1000 nM | < 1000 nM | < 10000 nM

Second part, the compound after the results:

IC50 (p110α/p85α) | IC50 (p110β/p85α) | IC50 (p110γ) | IC50 (p110α/p85α; in vitro) | IC50 (p110β/p85α; in vitro) | IC50 (p110γ; in vitro) | SMILES
< 1000 nM | < 1000 nM | < 10000 nM |  |  |  | Nc1nc2cc(-c3ccc4ncc(N5CCOCC5)n4n3)ccc2o1 [compound 57]
< 100 nM | < 10000 nM | < 10000 nM |  |  |  | Nc1nc2cc(-c3ccc4ncn(C5CCNCC5)c(=O)c4c3)ccc2o1 [compound 75]
< 1000 nM | < 10000 nM | < 1000 nM |  |  |  | Nc1nc2cc(-c3ccc4ncc(C(=O)N5CCOCC5)n4n3)ccc2o1 [compound 105]
< 100 nM | < 10000 nM |  |  |  |  | Nc1nc2cc(-c3ccc4ncc(C(=O)N5CCNCC5)n4c3)ccc2o1 [compound 111]
< 1000 nM | < 1000 nM | < 1000 nM |  |  |  | Nc1nc2ccc(-c3ccc4ncc(C(=O)N5CCOCC5)n4c3)cc2o1 [compound 124]
< 1000 nM | < 10000 nM | < 1000 nM |  |  |  | Nc1nc2cc(-c3ccc4ncc(C(=O)N5CCOCC5)n4c3)ccc2s1 [compound 126]
< 1000 nM | < 10000 nM |  |  |  |  | CN1CCCN(C(=O)c2cnc3ccc(-c4ccc5oc(N)nc5c4)cn23)CC1 [compound 140]
< 1000 nM | < 10000 nM |  |  |  |  | CN1CCN(C(=O)c2cnc3ccc(-c4ccc5sc(N)nc5c4)cn23)CC1 [compound 144]
< 1000 nM | < 10000 nM | < 10000 nM |  |  |  | CN1CCN(C(=O)c2cnc3ccc(-c4ccc5nc(N)oc5c4)cn23)CC1 [compound 145]
< 10000 nM | < 10000 nM |  |  |  |  | CN1CCN(C(=O)c2cnc3ccc(-c4ccc5nc(N)sc5c4)cn23)CC1 [compound 146]
< 1000 nM | < 1000 nM |  |  |  |  | CC1CN(C(=O)c2cnc3ccc(-c4ccc5oc(N)nc5c4)cn23)CCN1 (stereo not shown) [compound 164]
< 1000 nM | < 10000 nM | < 10000 nM |  |  |  | Nc1nc2cc(-c3ccc4ncc(C(=O)N5CCCCC5)n4c3)ccc2o1 [compound 196]
 |  |  | < 100 nM | < 1000 nM |  | Nc1nc2cc(-c3ccc4ncc(C(=O)N5CCC(N)CC5)n4c3)ccc2o1 [compound 204]
 |  |  | < 1000 nM | < 10000 nM | < 1000 nM | Nc1cn2cc(-c3ccc4oc(N)nc4c3)ccc2n1 [compound 245]
 |  |  | < 10000 nM | < 10000 nM |  | Nc1nc2cc(-c3ccc4nnc(-c5cccnc5)n4c3)ccc2o1 [compound 300]
